Data on 2 compounds can be found in patent US20140106015A1, “COMPOSITION CONTAINING HEAT-TREATED POWDER OR EXTRACT OF GLYCINE SOJA AS ACTIVE GRADIENT FOR PREVENTION AND TREATMENT OF DIABETES MELLITUS AND DIABETIC COMPLICATIONS” (KOC BIOTEC CO LTD, priority 2011, published 2014).

The structures appear in SMILES notation.

What all share (format): in vivo, mouse
Series [1] has as its system db/db mice. Description: Experimental Example 2: glycine soja streamed powder versus metformin in db/db mice, 6 weeks oral. Particulars: age of 10 weeks, fasted about 16 h, DC and bean powder 2 g/kg/day, metformin 150 mg/kg/day.
For series [2], the system named is db/db mice. The series is described as above. The settings on record: age of 10 weeks. How it is done:
The glycine soja streamed powder (DC) was diluted with physiological saline and the dilution was orally administered in divided portions (each 0.2 ml) at 10 a.m. and 4 p.m. daily using a mouse sonde (2 g/kg/day). Metformin (1,1-dimethylbiguanide), which is a widely used hypoglycemic agent, was chosen as positive control. Metformin was dissolved in 0.25% carboxymethylcellulose (CMC) and administered orally in two divided portions (each 0.2 ml) in the same manner (150 mg/kg/day). The same amount of physiological saline as negative control was administered in the same manner. A general bean streamed powder was used as another comparative test group. The bean streamed powder was obtained in the same manner as in Example 1, except that bean was used instead of glycine soja. The bean streamed powder was administered orally twice a day in the same amount and manner as the glycine soja streamed powder (DC).
Male db/db mice, aged 3 weeks, were acclimatized to an animal breeding room for 1 week. 6 mice were assigned to each experimental group. The blood glucose levels of the animals were measured from the age of 4 weeks at intervals of 1 week for a total of 6 weeks. Drug was administered orally in divided portions (each 0.2 ml) at 10 a.m. and 4 p.m. daily using a mouse sonde. All animals were fasted for 6 h from 9 a.m. to 3 p.m. every Wednesday. Blood samples were collected from the mouse tail vein and blood glucose levels were measured using a portable blood glucose meter (OneTOUCH@Ultra. Johnson & Johnson, USA). Since serum for final biochemical analysis requires blood sampling after fasting for at least 12 h, blood glucose levels were measured at the final 8th week. 2 days after the measurement, an autopsy was conducted. For the autopsy, all animals were fasted for 12 h. Blood samples were drawn from the heart under ether anesthesia, put in tubes for serum separation, and centrifuged at 3000 rpm for 20 min to obtain serum samples, which were used as samples for the analysis of biochemical indices.
Experimental Group Classification • Control (db/db mice) (n=6) • Positive control (Metformin, 150 mg/kg/day, o.p) (n=6) • Glycine soja streamed powder (DC) (2.0 g/kg/day, o.p) (n=6) • Bean powder (2.0 g/kg/day, o.p) (n=6)
After a test material was administered to each experimental group for 6 weeks, blood glucose level was measured at the final 8th week. 2 days after the measurement, an autopsy was conducted. For the autopsy, each animal was fasted for 12 h. Blood was drawn from the heart under ether anesthesia, put in a tube for serum separation, and centrifuged at 3000 rpm for 20 min to obtain serum, which was used as a sample for the analysis of biochemical indices. The glucose and insulin levels of the serum were analyzed. Changes in the insulin level and insulin resistance index (HOMAIR) of each experimental group during administration for 8 weeks period were calculated by the following formulae. Plasma was obtained as a sample in the same manner. The level of insulin in the plasma was measured using a Mouse Insulin ELISA kit (Shibayagi, Japan) and an ELISA reader (Labsystems, Finland).
After a test material was administered to each experimental group for 6 weeks, abdominal, epididymal, and inguinal adipose tissues were excised from each experimental animal. The total weight of the adipose tissues was measured.
Blood was obtained in the same manner as in 1-3, put in a tube for serum separation, and centrifuged at 3000 rpm for 20 min to obtain serum, which was used as a sample for the analysis of biochemical indices. Total cholesterol, high-density lipoprotein (HDL) cholesterol, low-density lipoprotein (LDL) cholesterol, triglyceride, and phospholipid levels, which are indices of lipid contents in plasma and liver, in the plasma were measured using an automatic biochemical analyzer (Hitachi-720, Hitachi Medical, Japan). […]

In series [3] the test system is BKS.Cg-m+/+ Leprdb/J homozygous diabetic (db/db) mice. Description: Experimental Example 5: efficacy comparison with anthocyanins, pinitol, banaba/Cr complex in db/db mice. The protocol:
“Pinitol”: Product containing 95% or more of pinitol (Sigma-Aldrich) “Banaba/Cr complex”: Wellness Banaba Gold ChromeTM (containing 400 mg/g banaba leaf extract, 200 mg/g indigestible maltodextrin and 0.1 mg/g chromium) Male db/db mice, aged 3 weeks, were acclimatized to an animal breeding room for 1 week. 4 mice were assigned to each experimental group. […] All animals were fasted for 6 h from 9 a.m. to 3 p.m. every Wednesday. Blood samples were collected from the mouse tail vein and blood glucose levels were measured using a portable blood glucose meter (OneTOUCH@Ultra, Johnson & Johnson, USA). […] The following are a total of 8 experimental groups used. Classification of Experimental Groups • NC: […] After the drug (test material) was administered to each experimental group for 6 weeks, abdominal, epididymal, and inguinal adipose tissues were excised from each experimental animal. The total weight of the adipose tissues was measured. […] For the autopsy, each animal was fasted for 12 h. […] After plasma was separated, the levels of total cholesterol, high-density lipoprotein (HDL) cholesterol, low-density lipoprotein (LDL) cholesterol, triglyceride, BUN, and phospholipid in the plasma were measured using an automatic biochemical analyzer (Hitachi-720, Hitachi Medical, Japan). […] The levels of glucose and insulin in the serum were analyzed. Plasma was obtained as a sample in the same manner. The plasma insulin level was measured using a Mouse Insulin ELISA kit (Shibayagi, Japan) and an ELISA reader (Labsystems, Finland). Data obtained from the above experiments were expressed as mean±standard error and significance assay was determined using Student's T-test.

Setting [4] is: DC and bean powder 2 g/kg/day, metformin 150 mg/kg/day.
The mark [5] stands for this setting: metformin 150 mg/kg/day, bean powder 2 g/kg/day.
The mark [6] stands for this setting: db/db mice, 100 mg/kg/day, BANABA 300 mg/kg/day.

Take `CN(C)C(=N)NC(=N)N` [metformin, 1,1-dimethylbiguanide]: in series [1], the serum glucose level stood at 376.0 mg/dL. In series [2], the “serum high-density lipoprotein cholesterol level compared with non-administered group” value is “no significant differences”. Also, the “serum triglyceride level lower than non-administered group (NC)” value in series [2] (DC 2 g/kg/day, metformin 150 mg/kg/day) is reported as 38.8%. In series [2] (setting [4]), the “serum ALT level” value was determined as 54.9 U/L, the “serum AST level” value was determined as 120.0 U/L, the “serum glucose level lower than non-administered group” value was found to be 34.6% and the “serum triglyceride (TG) level” value is reported as 78.8 mg/dL. Moreover, in series [2] (metformin 150 mg/kg/day), the “serum total cholesterol level compared with non-administered group” value is on record as “low compared to that of the non-administered group, but there was no statistical significance”. For the same compound, in series [2] (setting [5]), the “serum insulin level compared with non-administered group” value is “slightly lower than the serum insulin level of the non-administered group, but there were no statistical significances” and the “serum low-density lipoprotein cholesterol level compared with non-administered group” value was “low compared to the low-density lipoprotein cholesterol level of the non-administered group, but there were no statistical significances”. For the same compound, in series [2] (oral 6 weeks, DC and bean powder 2 g/kg/day, metformin 150 mg/kg/day), the “blood glucose level lower than non-administered group (NC)” value worked out at 34.6%.

`CO[C@H]1[C@H](O)[C@@H](O)[C@@H](O)[C@H](O)[C@@H]1O` [Pinitol, pinitol]: the “serum BUN level higher than non-treated group” value in series [3] (No. 4 mouse of the Pinitol-administered group) is recorded as at least 3 times. Besides, in series [3] (No. 4 mouse of the Pinitol-administered group, 100 mg/kg/day, NC 30.2 mg/dL), the “serum BUN level” value is reported as 92.8 mg/dL. Also, the blood glucose level in series [3] (db/db mice, 9th week, tail vein, fasted 6 h, oral 6 weeks, 100 mg/kg/day, BANABA 300 mg/kg/day) was 231.8 mg/dL. Moreover, the “blood glucose level lower than NC (hypoglycemic efficacy)” value in series [3] (db/db mice, 9th week, 100 mg/kg/day, BANABA 300 mg/kg/day) stood at 52.1%. Further, the “daily food intake compared with non-treated group” value in series [3] (db/db mice, after completion of the tests) is reported as “smaller”. Also, the “serum low-density lipoprotein cholesterol level compared with non-treated group” value in series [3] (db/db mice, age of 9 weeks) was “not substantially different”. In addition, the serum insulin level in series [3] (db/db mice, age of 9 weeks, 100 mg/kg/day, BANABA 300 mg/kg/day) came to 6.6 ng/mL. The “serum insulin level lower than NC (suppressive efficacy on insulin resistance)” value in series [3] (db/db mice, age of 9 weeks, NC 10.2 ng/ml) was found to be 35.3%. In addition, the “serum triglyceride (TG) level relative to non-treated group (NC)” value in series [3] (db/db mice, age of 9 weeks, NC 22 mg/dL) was “approximately twice”. The “serum total cholesterol level compared with non-treated group” value in series [3] (db/db mice, age of 9 weeks, NC 168.3 mg/dL) is “not substantially different”. Besides, in series [3] (db/db mice, age of 10 weeks), the “adipose tissue weight lower than non-treated group (NC)” value was “about 5.4%” and the “liver tissue weight compared with NC” value is “not substantially different”. Further, the “liver tissue weight lower than non-treated group (NC)” value in series [3] (db/db mice, age of 10 weeks, p<0.05) is recorded as “about 7.0%”. In addition, the “food efficiency ratio compared with non-treated group” value in series [3] (db/db mice, for 5 weeks) was “similar”. In series [3] (db/db mice, for 5 weeks, calculated from food intakes and body weight gains), the “Food efficiency ratio (PER, %)” value is given as 11.9 ± 1.28%. In series [3] (setting [6]), the Body weight gain is on record as 0.500 ± 0.05 g/day and the Food intake is on record as 4.20 g/day.
